Source: patent US4950667A, “Pyridinyl acetamide compounds useful in treating ulcers” (Hamari Chemicals, Ltd., priority 1988, dated 1990)
Structures can show the parent of a compound that is named as a salt.

Experiments:
[1] = system: water-immersion stress-induced gastric ulcer (Slc:SD rats); experiment: Water-immersion stress ulceration method; format: in vivo, rat (male Slc:SD); conditions: for Inhibition rate: vs non-treated control
Description: The stomachs were incised along the greater curvature, and the ulcers thus induced were measured for length under the stereoscopic microscope (magnification,×10), whereby the total sum of the lengths was taken as an ulcer index (U.I., in mm). The test substance was given orally to rats in the form of a 4% gum arabic suspension 30 minutes before stress loading.

[2] = Acute toxicity; conditions: mouse, in vivo; male ddY mice, single oral dose, observed for 7 days
Source text: A group of five male ddY mice (4-weeks aged) was used for testing.
The compound of Example 1 was suspended in 4% gum arabic solution to prepare a test pharmaceutical, which was given orally to each test animals once.

[3] = 30 mg/kg, oral, 30 minutes before stress loading, 7 hours stress
[4] = 10 mg/kg, oral, 30 minutes before stress loading, 7 hours stress

## CN/C(=N/CCSCc1nc[nH]c1C)NC#N [Cimetidine, reference compound]
[1]; 30 mg/kg, control reference (Cimetidine), no significance mark
  Inhibition rate: 61.4%
[1]; [3]
  ulcer index (U.I.), Mean ± S.E.: 5.2 ± 3.40 mm

## O=C(CNc1ccncc1)Nc1ccccc1Nc1ccccc1 [Example 1, N-[2-(phenylamino),phenyl]-2-[(4-pyridinyl)-amino]actetamide hydrochloride]
[1]; [4]
  ulcer index (U.I.), Mean ± S.E.: 13.0 ± 4.47 mm
  Inhibition rate: 2.8%
[1]; [3]
  ulcer index (U.I.), Mean ± S.E.: 3.8 ± 1.66 mm
[1]; 30 mg/kg, oral, 30 minutes before stress loading, 7 hours stress, *p < 0.05
  Inhibition rate: 71.3%
[1]; 100 mg/kg, oral, 30 minutes before stress loading, 7 hours stress
  ulcer index (U.I.), Mean ± S.E.: 1.5 ± 1.31 mm
[1]; 100 mg/kg, oral, 30 minutes before stress loading, 7 hours stress, **p < 0.01
  Inhibition rate: 88.8%
[2]
  LD50 at 168 h: ≥ 2000 mg/kg
